# Literature values, collected in US20040110696A1, “GENE THERAPY SYSTEM AND METHOD USING ALPHA-MSH AND ITS DERIVATIVES” (priority 2003, published 2004).
# Where no end group is shown, it is not given here.
# Assays:
# [1] = tested on: fever; details: for antipyretic potency: relative to the α-MSH(11-13) sequence; for antipyretic activity: rabbit, in vivo
# [2] = tested on: inflammation; details: for anti-inflammatory activity: in vitro and in vivo
substance,measurement,setting,value
"8-13 sequence: α-MSH fragment, residues 8-13 (RWGKPV; ends and bridges not checked; UniProt P01189 145-150, looked up, fragment)",antipyretic potency,[1],greater than that of the 11-13 sequence
"10-13 sequence: α-MSH(11-13) with glycine added to form the 10-13 sequence (GKPV; ends and bridges not checked; UniProt P01189 147-150, looked up, fragment)",antipyretic potency,[1],slightly decreased potency
MEHFRWG [α-MSH sequence (4-10)],anti-inflammatory activity,[2],little
same,antipyretic activity,[1],little
"9-13 sequence: α-MSH fragment, residues 9-13 (WGKPV; ends and bridges not checked; UniProt P01189 146-150, looked up, fragment)",antipyretic potency,[1],almost devoid of activity
lysine-proline-valine [KPV],anti-inflammatory activity,[2],parallel those of the parent molecule
same,antipyretic activity,[1],parallel those of the parent molecule
"[Nle^4,D-Phe^7]-α-MSH",potency in reducing fever,[1]; relative to the parent peptide α-MSH,approximately ten times more potent
Ac-[D-K11]-α-MSH 11-13-NH2,general potency of α-MSH (11-13) stereochemical analogs,"[2]; relative to L-form tripeptide, kind of activity not given, cited Hiltz 1991 anti-inflammatory activity",same general potency as the L-form
